Experimental data from patent US10010493B2, “Ester compound, and cosmetic component and cosmetic product each containing same” (Kokyu Alcohol Kogyo Co., Ltd., priority 2014, dated 2018).
“Also recorded” adds a separate entry of the source.

Assays:
Format in all cases: physicochemical
[1] = Viscosity, Brookfield viscometer DV-II+; conditions: 25° C., spindle No. 2, 12 rpm
Method: Viscosity of ester compounds was measured using Brookfield viscometer DV-II+ (spindle No. 2, 12 rpm, 25° C.). As a comparison, viscosity of oil agents commonly used in cosmetic products was also measured.

[2] = Smoothness (MIU, MMD), KES-SE Friction Tester on artificial leather; conditions: for MIU (mean frictional coefficient) / MMD (fluctuation of mean frictional coefficient): 25° C., 0.1 ml on artificial leather, average of three; for Smoothness in comparison with other oil agents: comparison of MIU at similar viscosity
Method: Smoothness of ester compounds was measured using KES-SE Friction Tester (Kato Tech Co., Ltd.) with a detection-unit jig (an accessory of the tester, made of silicone rubber with irregularities resembling a human finger) and artificial leather (artificial leather Supplare produced by Idemitsu Technofine Co., Ltd.). On the artificial leather, 0.1 ml of an ester compound was droped. The jig was contacted to the site on the surface of the artificial leather where the oil agent was dropped. Temperature of the leather, oil agent and jig was adjusted to 25° C. in a constant temperature bath. Then, the jig was moved back and forth once at the same site with a speed of 1 mm/s (the moving distance of the jig was approximately 80 mm in one back-and-forth movement), and a mean frictional coefficient (MIU) and a fluctuation of mean frictional coefficient (MMD) for one back-and-forth movement were measured. The measurement was performed three times and the average values of MIU and MMD were calculated, which were used as indices of smoothness. For comparison, MIU and MMD of the various ester compounds used in the viscosity measurement were also measured.

[3] = Ultraviolet absorber solubility in oily bases; note: key: C: Soluble; N: Insoluble; (N): Since it is insoluble when ultraviolet absorber is 3%, it is judged to be probably insoluble at 5% as well
Method: Their state after 1 week was evaluated visually.

[4] = Glossiness (refractive index), Abbe refractometer NTR-2T; conditions: 20° C.
Method: Measurement is carried out using Abbe refractometer NTR-2T (Atago Co., Ltd.) at 20° C., and resulting values represent refractive index.

[5] = Compatibility with various types of oil agent; parameters: key to Compatibility with Hydrogenated polyisobutene / Compatibility with Isononyl isononanoate / Compatibility with Neopentyl glycol diethylhexanoate / Compatibility with Triethylhexanoin / Compatibility with Octyldodecanol / Compatibility with Polyglyceryl-2 triisostearate / Compatibility with Diisostearyl malate / Compatibility with Olive oil / Compatibility with Isostearic acid / Compatibility with Cyclomethicone / Compatibility with Dimethicone (10 mm^2/s) / Compatibility with Ethanol / Compatibility with Glycerin / Compatibility with Squalane / Compatibility with Mineral oil: C: Compatible; N: Not compatible; conditions: for Compatibility with Cyclomethicone / Compatibility with Dimethicone (10 mm^2/s) / Compatibility with Ethanol / Compatibility with Glycerin / Compatibility with Hydrogenated polyisobutene / Compatibility with Isostearic acid / Compatibility with Mineral oil / Compatibility with Octyldodecanol / Compatibility with Olive oil / Compatibility with Polyglyceryl-2 triisostearate / Compatibility with Squalane / Compatibility with Triethylhexanoin / Compatibility with Diisostearyl malate / Compatibility with Isononyl isononanoate / Compatibility with Neopentyl glycol diethylhexanoate: 25° C., visual after 1 week
Method: Each of TCDNP and TCDDNP obtained in Synthesis Examples 1 and 8 and each of oily bases are combined with a weight ratio of 9:1 or 1:1, and dissolved in a water bath at 80-90° C. for approximately 30 min with stirring, then cooled to 50° C. with stirring, and stored in a thermostatic chamber at 25° C. Their compatibility was evaluated by visually checking the state after 1 week.

[6] = Tinosorb S 5%, judged from insolubility at 3%
[7] = Tinosorb S 5%, 25° C., visual after 1 week
[8] = Tinosorb S 2%, 25° C., visual after 1 week
[9] = Tinosorb S 7%, 25° C., visual after 1 week

For “Polyglyceryl-2 triisostearate [reference compound]”, the Viscosity [1] was 339 mPa · s, the “MIU (mean frictional coefficient)” value [2] was 0.31 and the “MMD (fluctuation of mean frictional coefficient)” value (“MMD” for short) [2] was 0.008.
In the case of Ethylhexyl hydroxystearate, the “Solubility of ultraviolet absorber Tinosorb S in the component” value (from here on “Solubility”) [3, 6] is reported as “(N)”.
With Ethylhexyl isononanoate the “Solubility” value [3, 7] was “N”.
For “tricyclo[5.2.1.0^2,6]deca-8-yl-methyl isostearate [TCDIS]”, the Viscosity [1] was 85 mPa · s, the Refractive index [4] was 1.482 and the “MIU (mean frictional coefficient)” value [2] was 0.40. For the same compound, the “MMD” value [2] was 0.006.
For `CC(C)CCCCCC(=O)OCC(C)(C)COC(=O)CCCCCC(C)C` [Neopentyl glycol diisononanoate], the “Solubility” value [3, 6] was “(N)”.
In the case of `CCCCCCCCCCC(CO)CCCCCCCC` (centres unmarked) [Octyldodecanol, reference compound], the Viscosity [1] is reported as 49 mPa · s, the “MIU (mean frictional coefficient)” value [2] is reported as 0.39 and the “MMD” value [2] is reported as 0.007.
In the case of Isopropyl dimerate, the “Solubility” value [3, 8] is reported as “N”.
With `CC(C)CCCCCCOC(=O)CCCCCC(C)C` [Isononyl isononanoate] the “Solubility” value [3, 7] was “N”.
With `CC(C)CCCCCCCCCCCCCCCOC(=O)C(C)(C)C` [Isostearyl neopentanoate, reference compound] the “Solubility” value [3, 7] was “N”, the Viscosity [1] was 14 mPa · s and the Refractive index [4] was 1.446. For the same compound, the “MIU (mean frictional coefficient)” value [2] was 0.27 and the “MMD” value [2] was 0.006.
In the case of `CC(C)CCCC(C)CCCC(C)CCCCC(C)CCCC(C)CCCC(C)C` (centres unmarked) [Squalane, reference compound], the Viscosity [1] is reported as 32 mPa · s, the “MIU (mean frictional coefficient)” value [2] is reported as 0.40 and the “MMD” value [2] is reported as 0.007.
For `CCCCCCCCCCCCCCCCCC(=O)OC(CCCCCC)CCCCCCCCCCC(=O)OCC(CCCCCCCC)CCCCCCCCCC` (centres unmarked) [Octyldodecyl stearoyloxy stearate, reference compound], the “Solubility” value [3, 8] was “N”, the Viscosity [1] was 96 mPa · s and the “MIU (mean frictional coefficient)” value [2] was 0.41. The “MMD” value [2] was 0.006.
With `CC(C)(C)C(=O)OCC1CC2CC1C1CCC(COC(=O)C(C)(C)C)C21` (centres unmarked) [TCDDNP, 3,8-bis-(neopentanoyloxymethyl)-tricyclo[5.2.1.0^2,6]decane] the “Compatibility with the oil agents (overall)” value [5] was “excellent compatibility with the oil agents other than glycerin”, the “Compatibility with Cyclomethicone” value ([5]; 10%) was “C” and the “Compatibility with Dimethicone (10 mm^2/s)” value (shortened to “Compatibility … (10 mm^2/s)”) ([5]; 10%) was “C”. The “Compatibility with Ethanol” value ([5]; 10%) was “C”, the “Compatibility with Glycerin” value ([5]; 10%) was “N” and the “Compatibility with Hydrogenated polyisobutene” value ([5]; 10%) was “C”. The “Compatibility with Isostearic acid” value ([5]; 10%) was “C”, the “Compatibility with Mineral oil” value ([5]; 10%) was “C” and the “Compatibility with Octyldodecanol” value ([5]; 10%) was “C”. The “Compatibility with Olive oil” value ([5]; 10%) was “C”, the “Compatibility with Polyglyceryl-2 triisostearate” value ([5]; 10%) was “C” and the “Compatibility with Squalane” value ([5]; 10%) was “C”. The “Compatibility with Triethylhexanoin” value ([5]; 10%) was “C”, the “Compatibility with Cyclomethicone” value ([5]; 50%) was “C” and the “Compatibility … (10 mm^2/s)” value ([5]; 50%) was “C”. For the same compound, the “Compatibility with Ethanol” value ([5]; 50%) was “C”, the “Compatibility with Glycerin” value ([5]; 50%) was “N” and the “Compatibility with Hydrogenated polyisobutene” value ([5]; 50%) was “C”. For the same compound, the “Compatibility with Isostearic acid” value ([5]; 50%) was “C”, the “Compatibility with Mineral oil” value ([5]; 50%) was “C” and the “Compatibility with Octyldodecanol” value ([5]; 50%) was “C”. The “Compatibility with Olive oil” value ([5]; 50%) was “C”, the “Compatibility with Polyglyceryl-2 triisostearate” value ([5]; 50%) was “C” and the “Compatibility with Squalane” value ([5]; 50%) was “C”. The “Compatibility with Triethylhexanoin” value ([5]; 50%) was “C”, the Viscosity [1] was 462 mPa · s and the Refractive index [4] was 1.472. The “MIU (mean frictional coefficient)” value [2] was 0.28 and the “MMD” value [2] was 0.006.
With `CC(C)CCCCCCCOC(=O)C(C)(C)C` [Isodecyl neopentanoate, reference compound] the “Solubility” value [3, 7] was “N”, the Viscosity [1] was 4 mPa · s and the Refractive index [4] was 1.430. The “MIU (mean frictional coefficient)” value [2] was 0.15 and the “MMD” value [2] was 0.005.
In the case of `CC(C)(C)C(=O)OCC1CC2CC1C1CCCC21` (centres unmarked) [TCDNP, tricyclo[5.2.1.0^2,6]deca-8-yl-methyl neopentanoate], the “Compatibility with the oil agents (overall)” value [5] is reported as “excellent compatibility with the oil agents other than glycerin”, the “Compatibility with Cyclomethicone” value ([5]; 10%) is reported as “C” and the “Compatibility with Diisostearyl malate” value ([5]; 10%) is reported as “C”. The “Compatibility … (10 mm^2/s)” value ([5]; 10%) was “C”, the “Compatibility with Ethanol” value ([5]; 10%) was “C” and the “Compatibility with Glycerin” value ([5]; 10%) was “N”. For the same compound, the “Compatibility with Hydrogenated polyisobutene” value ([5]; 10%) was “C”, the “Compatibility with Isononyl isononanoate” value ([5]; 10%) was “C” and the “Compatibility with Mineral oil” value ([5]; 10%) was “C”. The “Compatibility with Neopentyl glycol diethylhexanoate” value ([5]; 10%) was “C”, the “Compatibility with Octyldodecanol” value ([5]; 10%) was “C” and the “Compatibility with Polyglyceryl-2 triisostearate” value ([5]; 10%) was “C”. For the same compound, the “Compatibility with Squalane” value ([5]; 10%) was “C”, the “Compatibility with Cyclomethicone” value ([5]; 50%) was “C” and the “Compatibility with Diisostearyl malate” value ([5]; 50%) was “C”. For the same compound, the “Compatibility … (10 mm^2/s)” value ([5]; 50%) was “C”, the “Compatibility with Ethanol” value ([5]; 50%) was “C” and the “Compatibility with Glycerin” value ([5]; 50%) was “N”. For the same compound, the “Compatibility with Hydrogenated polyisobutene” value ([5]; 50%) was “C”, the “Compatibility with Isononyl isononanoate” value ([5]; 50%) was “C” and the “Compatibility with Mineral oil” value ([5]; 50%) was “C”. The “Compatibility with Neopentyl glycol diethylhexanoate” value ([5]; 50%) was “C”, the “Compatibility with Octyldodecanol” value ([5]; 50%) was “C” and the “Compatibility with Polyglyceryl-2 triisostearate” value ([5]; 50%) was “C”. For the same compound, the “Compatibility with Squalane” value ([5]; 50%) was “C”, the “Solubility” value [3, 9] was “N” and the Viscosity [1] was 32 mPa · s. For the same compound, the Refractive index [4] was 1.479, the “MIU (mean frictional coefficient)” value [2] was 0.25 and the “MMD” value [2] was 0.006. The “Smoothness in comparison with other oil agents” value [2] was “superior smoothness than squalane; also recorded: comparable to dimethicone”.
For `CCCCCCCCCC(=O)OCC(C)(C)COC(=O)CCCCCCCCC` [Neopentyl glycol dicaprate], the “Solubility” value [3, 9] was “N”.
“Pentaerythrityl tetraisostearate [reference compound]” showed a Refractive index [4] of 1.468.
With `CC(CC(=O)OCC1CC2CC1C1CCCC21)CC(C)(C)C` (centres unmarked) [TCDIN, tricyclo[5.2.1.0^2,6]deca-8-yl-methyl isononanoate] the “Solubility” value [3, 7] was “N”, the Viscosity [1] was 44 mPa · s and the Refractive index [4] was 1.479. For the same compound, the “MIU (mean frictional coefficient)” value [2] was 0.31, the “MMD” value [2] was 0.006 and the “Smoothness in comparison with other oil agents” value [2] was “superior smoothness than squalane”.
In the case of `CC(C)COC(=O)CCCCC(=O)OCC(C)C` [Diisobutyl adipate], the “Solubility” value [3, 9] is reported as “N”.
With `CC(C)C(=O)OCC1CC2CC1C1CCCC21` (centres unmarked) [TCDIB, tricyclo[5.2.1.0^2,6]deca-8-yl-methyl isobutanoate] the Viscosity [1] was 15 mPa · s, the Refractive index [4] was 1.483 and the “MIU (mean frictional coefficient)” value [2] was 0.27. The “MMD” value [2] was 0.005.
In the case of `CCOC(=O)CCCCCCCCCCCCCCC(C)C` [Ethyl isostearate], the “Solubility” value [3, 7] is reported as “N”.
With `CCCCCCCCCCC(CO)CCCCCCCCCC` [Decyldodecanol, reference compound] the Viscosity [1] was 69 mPa · s, the “MIU (mean frictional coefficient)” value [2] was 0.40 and the “MMD” value [2] was 0.006.
With `CC(C)CCCCCCCCCCOC(=O)CCCCCC(C)C` [Isotridecyl isononanoate, reference compound] the “Solubility” value [3, 6] was “(N)” and the Refractive index [4] was 1.445.
In the case of `CCCCC(=O)OCC1CC2CC1C1CCCC21` (centres unmarked) [TCDP, tricyclo[5.2.1.0^2,6]deca-8-yl-methyl-n-pentanoate], the Viscosity [1] is reported as 15 mPa · s, the Refractive index [4] is reported as 1.484 and the “MIU (mean frictional coefficient)” value [2] is reported as 0.29. The “MMD” value [2] was 0.005.
With `CCCCC(CC)C(=O)OCC(C)(C)COC(=O)C(CC)CCCC` (centres unmarked) [Neopentyl glycol diethylhexanoate] the “Solubility” value [3, 7] was “N”.
